In PubChem BioAssay (NCI) one finds TGI data, which are given here for 4 compounds.

Common to all, as to experiment: DTP human tumour cell line panel, 48 h
For test [1], the system named is MCF7 breast.
The test system of test [2] is BT-549 breast.
In test [3] the test system is EKVX NSCLC.
In test [4] the test system is LOX IMVI melanoma.
Test [5] deals with OVCAR-3 ovarian.
For test [6], the system named is HL-60(TB) leukemia.
In test [7] the test system is SNB-19 CNS.
Test [8] concerns COLO 205 colon.
The subject of test [9] is NCI-H23 lung.
The subject of test [10] is HT29 colon.
Test [11] has as its system A498 renal.
Test [12] has as its system NCI-H522 lung.
Test [13] concerns HCT-15 colon.
For test [14], the system named is U251 CNS.
Test [15] concerns T-47D breast.
Test [16] has as its system ACHN renal.
For test [17], the system named is SK-MEL-28 melanoma.
For test [18], the system named is TK-10 renal.
The subject of test [19] is A549 NSCLC.
The subject of test [20] is SN12C renal.

SMILES strings stand for the structures.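 Protocol summary: plate cells (96-well), add compound at 5 concentrations, incubate 48 h, interpolate endpoints linearly. Definition used: TGI = concentration required for complete inhibition of growth.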 Bounds are passed on as bounds.

As a reminder, the TGI is the concentration at which net growth stops. Lower therefore signals more potent growth arrest.

Take `Cc1noc2nnn(-c3ccc(Cl)cc3)c(=O)c12`: the TGI in [1] stood at 13.6 µM; in test [2] it was 13.5 µM; in [3] it was 20.4 µM; in test [4], 11.4 µM; in [5] it was 6.83 µM; in test [6], 3.57 µM. Also, the TGI in [7] was found to be 26.1 µM; in test [8], 11.9 µM; in test [9], 20.5 µM; in [10] it was 17.2 µM; in [11] it was 27.1 µM; in test [12], 2.24 µM. Besides, the TGI was determined as 10.3 µM in [13]; 17.7 µM in test [14]; 10.8 µM in test [15]; 15.1 µM in test [16]; 25.5 µM in test [17]; 21.8 µM in [18]. Besides, the TGI came to 27.7 µM in [19] and 12.2 µM in test [20].

For `CC(C)[Si](OC1=CCC[C@H]2NC(=O)[C@@H](Cc3ccccc3)[C@@]12C)(C(C)C)C(C)C`, the TGI is 13.4 µM in test [1]; 24.1 µM in test [2]; 15 µM in test [3]; 11.2 µM in test [4]; 19.7 µM in test [5]; 7.82 µM in test [6]. Moreover, the TGI was found to be 22.5 µM in test [7]; 6.35 µM in test [8]; 18.9 µM in [9]; 12.1 µM in [10]; 19.2 µM in [11]; 17.4 µM in test [12]. Besides, the TGI in [13] stood at 15.6 µM; in test [14], 11.6 µM; in test [15] it was 12.2 µM; in test [16], 5.25 µM; in [17], 13.1 µM; in test [18], 21.7 µM. In addition, the TGI is 12.6 µM in test [19] and 9.85 µM in [20].

Turning to `CC(C)(C)c1cc(C2=NN(c3ccccc3)C(c3ccccc3)C2)cc(C(C)(C)C)c1O` (stereo not given), the TGI in test [1], in [2], in test [3], in test [4], in test [5] and in [6] was above 100 µM each time. Also, the TGI in test [7], in [8], in test [9], in test [10], in test [11] and in [12] was above 100 µM each time. Further, the TGI in test [13], in test [14], in [15], in test [16], in [17] and in test [18] was above 100 µM each time. Besides, the TGI in test [19] and in [20] was above 100 µM each time.

On to `O=c1oc2cc(O)ccc2c(O)c1C(c1cccnc1)c1c(O)c2ccc(O)cc2oc1=O`, for which the TGI in test [1], in test [2], in [3], in [4], in [5] and in test [6] was above 100 µM each time. Further, the TGI in [7], in test [8], in test [9], in test [10], in test [11] and in test [12] was above 100 µM throughout. The TGI in [13], in test [14], in [15], in test [16], in [17] and in test [18] was above 100 µM in each case. In addition, the TGI in test [19] and in test [20] was above 100 µM each time.
